# Source: patent publication US7329680B2, “Heterocycle substituted carboxylic acids” (The Institute for Pharmaceutical Discovery, LLC, priority 2003, dated 2008)
row,melting point,SMILES
1,220 to 223 °C,"O=C(O)C(=O)Nc1cc(-c2ccc(-c3cccc4c3oc3ccccc34)cc2)cn(Cc2ccccc2)c1=O [Example 4, N-[1-Benzyl-5-(4-dibenzofuran-4-yl-phenyl)-2-oxo-1,2-dihydro-pyridin-3-yl]-oxalamic acid]"
2,210 °C (dec.),"O=C(O)CCNc1cc(-c2ccc(-c3cccc4c3oc3ccccc34)cc2)nc(-c2ccccc2)n1 [Example 46, 3-[2-phenyl-6-(4-dibenzofuran-4-yl-phenyl)-pyrimidin-4-ylamino]-propionic acid]"

# The remaining lines, values behind:
row,SMILES,melting point
1,"O=C(O)[C@@H]1CSC(c2ccc(-c3ccc(-c4c(Cc5ccccc5)oc5ccccc45)cc3)cc2)N1 (mixture of isomers) [Example 38, (2RS,4R)-2-[4′-(2-Benzylbenzofuran-3-yl)biphen-4-yl]thiazolidine-4-carboxylic acid]",148 °C (dec.)
2,"O=C(O)[C@@H]1CSC(c2ccc(-c3ccc(-n4ccc5ccccc54)cc3)cc2)N1 (stereo in doubt) [Example 27, 2-(4′-Indol-1-yl-biphen-4-yl)thiazolidine-4-carboxylic acid]",135 to 137 °C (dec.)
3,"CCc1ccc(-c2sc(NC(=O)c3ccc(S(=O)(=O)N4CCCC4C(=O)O)cc3)nc2-c2ccc(Cl)cc2)cc1 (stereo not drawn) [Example 5, 1-{4-[4-(4-Chloro-phenyl)-5-(4-ethyl-phenyl)-thiazol-2-ylcarbamoyl]-benzenesulfonyl}-pyrrolidine-2-carboxylic acid]",289 to 292 °C
4,"O=C(O)CCNc1cc(-c2ccc(-c3cccc4c3oc3ccccc34)cc2)nc(Cc2ccccc2)n1 [Example 45, 3-[2-Benzyl-6-(4-dibenzofuran-4-yl-phenyl)-pyrimidin-4-ylamino]-propionic acid]",205 °C (dec.)
